Measured values from PubChem BioAssay (NCI).
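Interpolation was linear, between the two tested concentrations surrounding the appropriate level; five concentrations were tested over 48 hours in 96-well plates. Definition used: TGI = concentration required for complete inhibition of growth.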

Assays:
Test in all cases: growth of human tumour cells (NCI), 48 h
ACHN renal = system: ACHN renal
MDA-MB-435 = system: MDA-MB-435
MOLT-4 leukemia = system: MOLT-4 leukemia
T-47D breast = system: T-47D breast
U251 CNS = system: U251 CNS
SW-620 colon = system: SW-620 colon
HOP-92 NSCLC = system: HOP-92 NSCLC
NCI-H226 lung = system: NCI-H226 lung
SNB-75 CNS = system: SNB-75 CNS
MDA-N = system: MDA-N
MDA-MB-231 breast = system: MDA-MB-231 breast
UACC-62 melanoma = system: UACC-62 melanoma
PC-3 prostate = system: PC-3 prostate
MCF7 breast = system: MCF7 breast
A498 renal = system: A498 renal
KM12 colon = system: KM12 colon
TK-10 renal = system: TK-10 renal
M14 melanoma = system: M14 melanoma
BT-549 breast = system: BT-549 breast
A549 NSCLC = system: A549 NSCLC

| Structure (SMILES) | TGI (ACHN renal) [µM] | TGI (MDA-MB-435) [µM] | TGI (MOLT-4 leukemia) [µM] | TGI (T-47D breast) [µM] | TGI (U251 CNS) [µM] | TGI (SW-620 colon) [µM] | TGI (HOP-92 NSCLC) [µM] | TGI (NCI-H226 lung) [µM] | TGI (SNB-75 CNS) [µM] | TGI (MDA-N) [µM] | TGI (MDA-MB-231 breast) [µM] | TGI (UACC-62 melanoma) [µM] | TGI (PC-3 prostate) [µM] | TGI (MCF7 breast) [µM] | TGI (A498 renal) [µM] | TGI (KM12 colon) [µM] | TGI (TK-10 renal) [µM] | TGI (M14 melanoma) [µM] | TGI (BT-549 breast) [µM] | TGI (A549 NSCLC) [µM] |
| --- | --- | --- | --- | --- | --- | --- | --- | --- | --- | --- | --- | --- | --- | --- | --- | --- | --- | --- | --- | --- |
| CN(C)c1ccc(/C=C/c2cc[n+](C)c3ccccc23)cc1 | 36.5 | 10.2 | > 38.3 | 16.6 | 15.9 | 12.9 | 7.85 | 16.2 | 12.1 | 9.35 | 20.3 | 12 | 8.72 | 7.75 | > 58.8 | 10.7 | 25.1 | 15.8 | 8.44 | > 90.8 |
| Cn1c(COC(=O)NC2CCCCC2)c(COC(=O)NC2CCCCC2)c2ccc3cc(Cl)c(Cl)cc3c21 | 32.3 | 49.4 | 54.4 | 22.4 |  | 32.8 | 19.5 | > 100 | 27.8 | 25.4 | 22.1 | 24.1 | 32.9 | 16.9 | 25.9 | 36.4 | 30.6 | 36.7 | 30.5 | > 100 |
| CSc1c(C(=O)Nc2ccc(Cl)cc2)c(N)[nH]c(=O)c1C#N | > 100 | > 70.9 | > 91.9 | > 83.3 | > 71.4 | > 100 | 59.9 | > 100 | > 100 | > 70 | > 60.9 | > 100 | 47.7 | > 78.6 | 62.1 | > 100 | > 100 | > 100 | > 91.1 | > 100 |
| O=C(O)c1cc2c(s1)C(=O)c1sccc1C2=O | 25.1 | 1.68 | 28.6 | 17.3 | 15.6 | 5.28 | 30.1 | 37.1 | 3.37 | 1.68 | 38.4 | 4.56 | 43.5 | 7.91 | 31.2 | 21.1 | 36 | 2.91 | 3.78 | 8.39 |
| Cc1cc(C2(c3cc(C)c(O)c(C(=O)O)c3)OS(=O)(=O)c3ccccc32)cc(C(=O)O)c1O | > 100 | > 100 | > 100 | > 100 | > 100 | > 100 | > 100 | > 100 | > 100 | > 100 | > 100 | > 100 | > 100 | > 100 | > 100 | > 100 | > 100 | > 100 | > 100 | > 100 |
| O=C(O)C/C(=C\c1ccccc1)C(=O)O | > 100 | > 100 | > 100 | > 100 | > 100 | > 100 | > 100 | > 100 | > 100 | > 100 | > 100 | > 100 | > 100 | > 100 | > 100 | > 100 | > 100 | > 100 | > 100 | > 100 |
| Cc1ccc(-c2n[nH]c(=O)[nH]2)cc1 | > 100 | > 100 | > 100 | > 46.4 | > 100 | > 100 | > 46.4 | > 100 | > 100 | > 100 | > 100 | > 100 | > 100 | > 100 | > 100 | > 100 | > 100 | > 100 | > 100 | > 100 |
| CC1CC[C@@]2(OC1)OC1C[C@H]3[C@@H]4CC[C@H]5CC(OC6OC(CO)C(OC7OC(CO)C(O)C(O)C7O)C(O)C6O)CCC5(C)[C@H]4CCC3(C)C1[C@@H]2C (stereo not given in full) | 14.5 | 18 | 25.4 | 20.4 | 17.4 | 17.8 | 16.5 | 16.5 | 18.7 | 16.3 | 17.2 | 17.6 | 15.1 | 15 | 16.3 | 15.8 | 17.6 | 18.2 | 11 | 19.6 |
| O=C1N[C@@H]([C@H](CCCCCO)OC(=O)c2ccccc2)CO1 | > 100 | > 100 | > 100 | > 100 | > 100 | > 100 | > 100 | > 100 | > 100 | > 100 | > 100 | > 100 | > 100 | > 100 | > 100 | > 100 | > 100 |  | > 100 | > 100 |
| N=c1oc2ccc(Cl)cc2cc1C(=O)Nc1ccccc1 | > 100 | > 100 | > 100 | > 44.8 | > 93 | > 100 | > 100 | > 100 | > 86.4 | > 100 | > 100 | > 100 | > 100 | > 100 | > 100 | > 100 | > 100 | > 100 | > 100 | > 100 |
| N#Cc1c2c([nH]c(=O)c1C#N)CCCC2 | > 100 | > 100 | > 100 | > 100 | > 100 | > 100 | > 100 | > 100 | > 100 | > 100 | > 100 | > 100 | > 100 | > 100 | > 100 | > 100 | > 100 | > 100 | > 100 | > 100 |
| NC1=Nc2ccccc2Sc2nnc(-c3ccc(Cl)cc3)n21 | > 100 | > 100 | 72.2 | > 100 | 80.6 | > 100 | > 100 | > 100 | > 100 | > 100 | 73.1 | > 100 | > 100 | > 100 | > 100 | > 100 | > 100 | > 100 | > 100 | > 100 |
| COc1ccc(/C=C(\NC(=O)c2ccccc2)C(=O)NN(C)c2ccnc3cc(Cl)ccc23)cc1OC | 79 | 49.6 | 47.7 | > 100 | 35.4 | 51.3 | 55.3 | 40.8 | > 100 | 65.7 | 60.3 |  | 70.2 | 46.3 | > 100 | 34.7 | > 100 | 47.9 | 39.5 | 97.1 |
| CN(C)Cc1cc(N=Nc2ccccc2Cl)cc(CN(C)C)c1O | > 100 | > 100 | > 100 | > 100 | > 100 | > 100 | > 100 | > 100 | > 100 | 79.3 | > 100 | 64.1 | > 100 | > 100 | > 100 | > 100 | > 100 | 49.1 | > 100 | > 100 |
| NCCCc1ccc2oc3ccccc3c2c1 | 32.1 | 29.1 | 30.5 | 33.7 | 33.4 | 50.3 | 43 | 35.5 | 30.6 | 29.6 | 33 | 31.9 | 33.1 | 34.2 | 30.2 |  | 30.4 | 30.1 | 37.2 | 32.9 |
| Nc1ccc(S(=O)(=O)c2ccc(NC(=O)c3cccnc3)cc2)cc1 | > 100 | > 100 | > 100 | > 100 | > 100 | > 100 | > 100 | > 100 | > 100 | > 100 | > 100 | > 100 | > 100 | > 100 | > 100 | > 100 | > 100 | > 100 | > 100 | > 100 |
| Clc1ncnc2c1nc(C#Cc1ccccc1)n2Cc1ccccc1 | > 100 | 43 | > 100 | > 100 | 34.9 | > 100 | 59.9 | > 100 | 92.2 | 53.8 | 71 | > 100 | > 100 | > 100 | > 100 | > 100 | > 100 | 53 | 49.8 | > 100 |
| NC(N)=NC(N)=Nc1c(F)c(F)c(F)c(F)c1F | > 100 | > 100 |  | > 100 | > 100 | > 100 | > 100 | > 100 | > 100 | > 100 | > 100 | > 100 | > 100 | > 100 | > 100 | > 100 | > 100 | 48.4 | > 100 | > 100 |
| COc1cc(/C=C/C2=NN(c3cccc(S(=O)(=O)O)c3)C3(C2)C(Cl)C(=O)N3c2nc3ccccc3s2)ccc1O (stereo not given) | 30.9 | 32.1 | 44.9 | 26.4 | 40.7 | 48 | 29.7 | 52.6 | 60 | 60.3 | 47.1 | 43.1 | > 100 | > 100 | > 100 | 41.2 | 28.2 | > 100 | 29.1 | > 100 |
